Measurements from ChEMBL document CHEMBL3769388, “Optimization of a Dicarboxylic Series for in Vivo Inhibition of Citrate Transport by the Solute Carrier 13 (SLC13) Family” (J Med Chem, 2016).
pIC50: −log10 of the molar value. Active and inactive are the calls of the source. The calls are words filed in the database; no cut-off is given here.

Tests used:
[1] = molecular target: Type-1 angiotensin II receptor (Homo sapiens) (UniProt P30556); assay: Inhibition of AGTR1 (unknown origin)
[2] = Volume of distribution at steady state in Wistar Han rat at 1 mg/kg, iv by LC-MS/MS analysis; type: ADME, organism-based; conditions: in vivo, read-out: Vdss
[3] = molecular target: T1, Na(+)/citrate cotransporter (Homo sapiens, UniProt Q86YT5); assay: Inhibition of NaCT in human hepatocytes assessed as [14C]-citrate uptake after 30 mins by scintillation counting method; type: cell-based, Hepatocyte
T1 sequence (Q86YT5 whole entry): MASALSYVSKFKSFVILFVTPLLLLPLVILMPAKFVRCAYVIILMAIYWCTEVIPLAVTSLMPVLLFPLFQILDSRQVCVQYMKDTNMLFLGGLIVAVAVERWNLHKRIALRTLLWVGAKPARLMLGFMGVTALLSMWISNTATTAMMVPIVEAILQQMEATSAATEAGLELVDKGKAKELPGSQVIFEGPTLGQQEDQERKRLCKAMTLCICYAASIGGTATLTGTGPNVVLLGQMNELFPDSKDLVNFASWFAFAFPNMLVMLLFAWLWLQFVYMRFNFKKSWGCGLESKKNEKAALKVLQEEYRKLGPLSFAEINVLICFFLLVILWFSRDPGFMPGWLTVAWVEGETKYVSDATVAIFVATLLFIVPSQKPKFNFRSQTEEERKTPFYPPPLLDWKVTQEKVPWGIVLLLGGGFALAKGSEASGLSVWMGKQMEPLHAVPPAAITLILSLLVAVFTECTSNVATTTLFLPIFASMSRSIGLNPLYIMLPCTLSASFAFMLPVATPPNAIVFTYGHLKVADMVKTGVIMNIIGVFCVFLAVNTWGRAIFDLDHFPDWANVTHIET

[4] = molecular target: Bile salt export pump (Homo sapiens, UniProt O95342); assay: Inhibition of ABCB11 (unknown origin)
[5] = species: Rattus norvegicus; assay: Increase in [12C]-citrate levels in rat liver measured over 140 to 150 mins by UPLC-MS/MS analysis; type: functional, organism-based
[6] = test system: Mus musculus; assay: Increase in urinary citrate output in C57BL/6J mouse at 250 mg/kg, po measured after 7 hrs by UPLC-MS/MS analysis; type: functional, Urine
[7] = molecular target: Adenosine receptor A1 (Homo sapiens) (UniProt P30542); assay: Inhibition of ADORA1 (unknown origin)
Adenosine receptor A1 (Homo sapiens), sequence (P30542 whole entry): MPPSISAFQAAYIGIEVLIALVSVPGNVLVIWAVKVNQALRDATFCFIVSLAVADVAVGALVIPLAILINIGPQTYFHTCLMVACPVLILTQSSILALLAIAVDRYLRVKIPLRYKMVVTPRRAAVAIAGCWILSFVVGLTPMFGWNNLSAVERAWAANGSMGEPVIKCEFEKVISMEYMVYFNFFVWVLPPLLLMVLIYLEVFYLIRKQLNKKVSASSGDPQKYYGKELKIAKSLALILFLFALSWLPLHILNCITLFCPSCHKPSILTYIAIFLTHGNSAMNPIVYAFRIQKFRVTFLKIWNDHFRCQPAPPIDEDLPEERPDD

[8] = molecular target: Endothelin-1 receptor (Homo sapiens) (UniProt P25101); assay: Inhibition of ETA (unknown origin)
[9] = molecular target: Mu-type opioid receptor (Homo sapiens) (UniProt P35372); assay: Inhibition of MOP (unknown origin)
Mu-type opioid receptor (Homo sapiens), sequence (P35372 whole entry): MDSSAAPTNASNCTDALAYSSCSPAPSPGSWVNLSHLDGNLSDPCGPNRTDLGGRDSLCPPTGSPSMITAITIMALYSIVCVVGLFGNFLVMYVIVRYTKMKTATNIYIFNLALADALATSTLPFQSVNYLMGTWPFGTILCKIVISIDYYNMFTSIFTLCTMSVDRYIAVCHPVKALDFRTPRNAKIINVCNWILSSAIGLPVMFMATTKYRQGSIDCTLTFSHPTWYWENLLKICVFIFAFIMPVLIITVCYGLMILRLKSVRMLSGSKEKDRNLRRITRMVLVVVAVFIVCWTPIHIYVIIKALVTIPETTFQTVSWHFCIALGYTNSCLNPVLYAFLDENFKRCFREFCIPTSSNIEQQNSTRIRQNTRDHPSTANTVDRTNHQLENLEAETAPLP

[10] = molecular target: Tyrosine-protein kinase ABL1 (Homo sapiens) (UniProt P00519); assay: Inhibition of ABL1 (unknown origin)
Tyrosine-protein kinase ABL1 (Homo sapiens), sequence (P00519 whole entry): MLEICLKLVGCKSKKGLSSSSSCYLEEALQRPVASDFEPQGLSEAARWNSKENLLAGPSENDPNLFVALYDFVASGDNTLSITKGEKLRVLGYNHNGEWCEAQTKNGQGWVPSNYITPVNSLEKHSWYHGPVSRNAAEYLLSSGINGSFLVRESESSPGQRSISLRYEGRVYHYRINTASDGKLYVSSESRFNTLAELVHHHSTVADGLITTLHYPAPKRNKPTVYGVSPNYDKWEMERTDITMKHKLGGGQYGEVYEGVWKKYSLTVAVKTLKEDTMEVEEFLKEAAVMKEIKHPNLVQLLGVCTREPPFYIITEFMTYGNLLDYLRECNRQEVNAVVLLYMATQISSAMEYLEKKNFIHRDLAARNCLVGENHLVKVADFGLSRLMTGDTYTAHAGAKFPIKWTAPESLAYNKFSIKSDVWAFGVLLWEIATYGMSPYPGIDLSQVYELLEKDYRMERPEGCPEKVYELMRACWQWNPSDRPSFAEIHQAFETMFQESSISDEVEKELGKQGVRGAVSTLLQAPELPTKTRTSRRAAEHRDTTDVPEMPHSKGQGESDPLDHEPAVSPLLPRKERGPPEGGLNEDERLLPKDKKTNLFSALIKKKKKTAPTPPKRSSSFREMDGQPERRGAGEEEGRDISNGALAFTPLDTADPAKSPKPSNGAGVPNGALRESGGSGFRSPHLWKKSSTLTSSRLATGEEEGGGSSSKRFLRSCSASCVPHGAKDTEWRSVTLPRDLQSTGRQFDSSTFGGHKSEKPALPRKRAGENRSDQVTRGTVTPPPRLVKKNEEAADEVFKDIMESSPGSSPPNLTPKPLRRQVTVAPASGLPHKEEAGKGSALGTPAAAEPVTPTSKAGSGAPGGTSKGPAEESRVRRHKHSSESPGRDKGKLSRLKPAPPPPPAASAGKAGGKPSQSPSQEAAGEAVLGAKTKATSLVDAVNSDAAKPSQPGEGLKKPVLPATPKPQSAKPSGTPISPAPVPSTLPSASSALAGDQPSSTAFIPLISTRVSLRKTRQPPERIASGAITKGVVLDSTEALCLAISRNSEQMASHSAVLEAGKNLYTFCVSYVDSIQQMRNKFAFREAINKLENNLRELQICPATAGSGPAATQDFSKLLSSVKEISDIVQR

[11] = molecular target: Mitogen-activated protein kinase 14 (Homo sapiens) (UniProt Q16539); assay: Inhibition of MAPK14/P38-alpha (unknown origin)
Mitogen-activated protein kinase 14 (Homo sapiens), sequence (Q16539 whole entry): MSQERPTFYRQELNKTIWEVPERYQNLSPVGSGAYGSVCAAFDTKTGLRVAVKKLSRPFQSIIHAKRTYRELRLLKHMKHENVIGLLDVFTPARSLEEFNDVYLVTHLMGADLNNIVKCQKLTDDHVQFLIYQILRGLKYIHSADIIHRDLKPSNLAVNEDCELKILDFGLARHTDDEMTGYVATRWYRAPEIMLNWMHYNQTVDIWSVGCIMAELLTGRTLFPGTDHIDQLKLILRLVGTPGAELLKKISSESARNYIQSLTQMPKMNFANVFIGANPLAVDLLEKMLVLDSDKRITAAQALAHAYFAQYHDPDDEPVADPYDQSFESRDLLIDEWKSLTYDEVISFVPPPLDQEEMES

[12] = molecular target: Voltage-gated L-type calcium channel (Homo sapiens, UniProt Q13936+Q13698+Q01668+O60840); assay: Inhibition of L type calcium channel (unknown origin); type: protein assay
[13] = molecular target: T1, Na(+)/citrate cotransporter; assay: Inhibition of NaCT (unknown origin) expressed in HEK293 cells assessed as inhibition of [14C]citrate uptake by microbeta plate reader analysis; type: cell-based; conditions: read-out: IC50
[14] = molecular target: 3',5'-cyclic-AMP phosphodiesterase 4D (Homo sapiens) (UniProt Q08499); assay: Inhibition of PDE4D2 (unknown origin)
[15] = molecular target: T2, Solute carrier family 13 member 2 (Homo sapiens, UniProt Q13183); assay: Inhibition of NaDC1 (unknown origin) expressed in HEK293 cells assessed as inhibition of [14C]citrate uptake by microbeta plate reader analysis; type: cell-based
T2 sequence (Q13183 whole entry): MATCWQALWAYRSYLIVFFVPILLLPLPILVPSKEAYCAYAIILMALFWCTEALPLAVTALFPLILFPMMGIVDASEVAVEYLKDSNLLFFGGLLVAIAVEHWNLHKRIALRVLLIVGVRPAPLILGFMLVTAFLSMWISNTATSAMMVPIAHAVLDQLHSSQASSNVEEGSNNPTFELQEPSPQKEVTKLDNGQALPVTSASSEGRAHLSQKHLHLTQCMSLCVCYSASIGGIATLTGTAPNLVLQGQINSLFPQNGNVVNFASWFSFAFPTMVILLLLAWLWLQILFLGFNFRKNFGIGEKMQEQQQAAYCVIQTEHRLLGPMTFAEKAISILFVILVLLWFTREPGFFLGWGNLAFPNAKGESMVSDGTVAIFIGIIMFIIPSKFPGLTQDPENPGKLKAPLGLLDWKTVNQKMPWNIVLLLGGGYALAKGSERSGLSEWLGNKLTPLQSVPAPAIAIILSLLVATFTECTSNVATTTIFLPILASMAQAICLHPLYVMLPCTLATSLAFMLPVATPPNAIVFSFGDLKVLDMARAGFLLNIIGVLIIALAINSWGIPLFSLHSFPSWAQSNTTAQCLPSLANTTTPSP

[16] = test system: Rattus norvegicus; assay: Decrease in [14C]citrate uptake in iv dosed Wistar Han rat testis measured after 185 to 200 mins by scintillation counting method; type: functional, organism-based
[17] = molecular target: Sodium-dependent phosphate transport protein 3 (Homo sapiens) (UniProt O00624); assay: Inhibition of NaPiA3 (unknown origin)
Sodium-dependent phosphate transport protein 3 (Homo sapiens), sequence (O00624 whole entry): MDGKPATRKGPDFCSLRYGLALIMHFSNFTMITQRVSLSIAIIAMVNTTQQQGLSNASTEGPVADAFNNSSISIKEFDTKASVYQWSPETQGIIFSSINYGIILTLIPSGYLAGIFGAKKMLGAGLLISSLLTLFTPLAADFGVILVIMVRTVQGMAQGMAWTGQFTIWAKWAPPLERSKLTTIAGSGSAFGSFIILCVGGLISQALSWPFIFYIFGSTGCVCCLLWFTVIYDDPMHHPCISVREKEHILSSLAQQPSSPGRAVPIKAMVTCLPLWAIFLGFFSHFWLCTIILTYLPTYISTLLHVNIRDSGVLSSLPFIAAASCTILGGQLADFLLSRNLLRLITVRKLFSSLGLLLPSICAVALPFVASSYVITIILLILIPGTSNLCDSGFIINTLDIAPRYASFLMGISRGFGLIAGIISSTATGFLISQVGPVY

[18] = molecular target: 5-hydroxytryptamine receptor 3A (Homo sapiens) (UniProt P46098); assay: Inhibition of 5HT3 receptor (unknown origin)
5-hydroxytryptamine receptor 3A (Homo sapiens), sequence (P46098 whole entry): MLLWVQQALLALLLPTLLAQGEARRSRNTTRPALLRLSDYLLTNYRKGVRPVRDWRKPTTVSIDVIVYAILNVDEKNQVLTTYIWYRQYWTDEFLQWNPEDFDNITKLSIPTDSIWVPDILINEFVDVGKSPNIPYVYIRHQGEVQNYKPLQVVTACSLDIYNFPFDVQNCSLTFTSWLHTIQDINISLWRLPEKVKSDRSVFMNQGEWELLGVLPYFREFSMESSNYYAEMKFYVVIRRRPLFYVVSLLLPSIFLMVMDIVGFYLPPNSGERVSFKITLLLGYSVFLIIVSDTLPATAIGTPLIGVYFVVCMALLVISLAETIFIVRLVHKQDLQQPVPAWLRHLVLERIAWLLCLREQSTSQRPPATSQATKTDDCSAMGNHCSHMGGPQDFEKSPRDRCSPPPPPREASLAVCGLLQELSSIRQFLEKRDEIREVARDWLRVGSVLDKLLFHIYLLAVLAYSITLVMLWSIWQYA

[19] = Passive permeability in MDCK cells; type: ADME, cell-based, Canis lupus familiaris; conditions: dog
[20] = Half life in Wistar Han rat at 1 mg/kg, iv by LC-MS/MS analysis; type: ADME, organism-based; conditions: in vivo
[21] = molecular target: Vasopressin V1a receptor (Homo sapiens) (UniProt P37288); assay: Inhibition of AVPR1A (unknown origin)
[22] = molecular target: High affinity choline transporter 1 (Homo sapiens) (UniProt Q9GZV3); assay: Inhibition of choline transporter 1 (unknown origin)
[23] = molecular target: Prostaglandin G/H synthase 2 (Homo sapiens) (UniProt P35354); assay: Inhibition of cyclooxygenase 2 (unknown origin)
[24] = Fraction unbound in Wistar Han rat by equilibrium dialysis method; type: ADME
[25] = molecular target: Alpha-2A adrenergic receptor (Homo sapiens) (UniProt P08913); assay: Inhibition of ADRA2A (unknown origin)
[26] = molecular target: Sodium channel protein type 5 subunit alpha (Homo sapiens, UniProt Q14524); assay: Inhibition of NaV1.5 (unknown origin)
[27] = molecular target: Sodium channel protein type 1 subunit alpha (Homo sapiens) (UniProt P35498); assay: Inhibition of NaV1.1 (unknown origin)
[28] = molecular target: Kappa-type opioid receptor (Homo sapiens) (UniProt P41145); assay: Inhibition of OPRK1 (unknown origin)
[29] = Clearance in human hepatocytes assessed per 10^6 cells; type: ADME, cell-based, Hepatocyte; conditions: read-out: CLH
[30] = molecular target: Cytochrome P450 3A4 (Homo sapiens, UniProt P08684); assay: Inhibition of CYP3A4 (unknown origin); type: ADME
[31] = molecular target: D(2) dopamine receptor (Homo sapiens) (UniProt P14416); assay: Inhibition of D2 (unknown origin)
[32] = test system: Mus musculus; assay: Decrease in fasting glucose levels in DIO C57/B6 mouse model in basal portion at 44 mg/kg/hr for 90 mins; type: functional, organism-based
[33] = molecular target: Sodium-dependent phosphate transport protein 1 (Homo sapiens) (UniProt Q14916); assay: Inhibition of NaPiA1 (unknown origin)
[34] = molecular target: Androgen receptor (Homo sapiens) (UniProt P10275); assay: Inhibition of Androgen receptor (unknown origin)
[35] = molecular target: Na(+)/dicarboxylate cotransporter 3 (Homo sapiens, UniProt Q8WWT9); assay: Inhibition of NaDC3 (unknown origin) expressed in HEK293 cells assessed as inhibition of [14C]citrate uptake by microbeta plate reader analysis; type: cell-based
Na(+)/dicarboxylate cotransporter 3, sequence (Q8WWT9 whole entry): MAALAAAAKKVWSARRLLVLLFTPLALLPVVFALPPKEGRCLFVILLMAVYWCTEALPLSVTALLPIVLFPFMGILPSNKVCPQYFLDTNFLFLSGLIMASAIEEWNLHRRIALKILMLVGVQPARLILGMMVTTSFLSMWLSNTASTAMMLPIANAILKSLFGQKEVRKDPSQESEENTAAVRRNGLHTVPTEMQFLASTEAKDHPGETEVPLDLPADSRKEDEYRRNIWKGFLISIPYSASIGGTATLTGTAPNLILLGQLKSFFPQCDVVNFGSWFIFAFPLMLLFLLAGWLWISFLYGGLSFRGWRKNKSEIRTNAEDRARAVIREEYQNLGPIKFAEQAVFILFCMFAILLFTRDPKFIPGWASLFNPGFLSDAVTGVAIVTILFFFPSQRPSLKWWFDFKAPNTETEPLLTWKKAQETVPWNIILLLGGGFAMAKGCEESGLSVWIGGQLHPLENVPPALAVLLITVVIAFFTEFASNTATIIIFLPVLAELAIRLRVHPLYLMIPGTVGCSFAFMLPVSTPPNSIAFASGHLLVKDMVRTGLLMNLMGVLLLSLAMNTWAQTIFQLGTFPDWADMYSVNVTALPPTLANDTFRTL

[36] = molecular target: 5-hydroxytryptamine receptor 1A (Homo sapiens) (UniProt P08908); assay: Inhibition of 5HT1A (unknown origin)
[37] = molecular target: Muscarinic acetylcholine receptor M3 (Homo sapiens) (UniProt P20309); assay: Inhibition of M3 (unknown origin)
Muscarinic acetylcholine receptor M3 (Homo sapiens), sequence (P20309 whole entry, looked up): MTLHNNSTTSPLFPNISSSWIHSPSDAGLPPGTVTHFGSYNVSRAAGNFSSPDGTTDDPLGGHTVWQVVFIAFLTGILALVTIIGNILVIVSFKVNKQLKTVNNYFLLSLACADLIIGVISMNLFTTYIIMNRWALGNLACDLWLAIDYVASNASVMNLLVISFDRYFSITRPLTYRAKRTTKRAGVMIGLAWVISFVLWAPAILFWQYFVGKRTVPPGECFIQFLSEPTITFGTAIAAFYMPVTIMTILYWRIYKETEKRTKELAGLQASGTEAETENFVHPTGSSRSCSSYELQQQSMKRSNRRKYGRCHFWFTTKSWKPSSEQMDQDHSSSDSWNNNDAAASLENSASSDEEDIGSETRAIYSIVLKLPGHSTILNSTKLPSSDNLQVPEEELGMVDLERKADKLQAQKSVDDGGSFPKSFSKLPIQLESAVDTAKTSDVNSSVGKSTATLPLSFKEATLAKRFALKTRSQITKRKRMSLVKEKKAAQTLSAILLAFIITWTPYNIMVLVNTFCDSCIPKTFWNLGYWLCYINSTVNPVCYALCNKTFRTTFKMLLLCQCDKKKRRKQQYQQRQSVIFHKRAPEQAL

[38] = molecular target: Proto-oncogene tyrosine-protein kinase Src (Homo sapiens) (UniProt P12931); assay: Inhibition of SRC (unknown origin)
[39] = molecular target: ATP-citrate synthase (Homo sapiens) (UniProt P53396); assay: Inhibition of ACL (unknown origin) upto 30 uM

COc1ncc(C)cc1CC[C@@](O)(CC(=O)O)C(=O)O
inhibition [1]: inactive | Vd [2]: 0.54 L/kg | pIC50 [3]: 6.13 | inhibition (INH) [4]: Not Active | Activity [5]: Active | fold change (FC) [6]: 230 | inhibition [7]: inactive | inhibition [8]: inactive | inhibition [9]: inactive | inhibition [10]: inactive | inhibition [11]: inactive | inhibition (INH) [12]: Not Active | pIC50 [13]: 6.29 | inhibition [14]: inactive | pIC50 ([15]; read-out: IC50): 4.88 | IC50 ([15]; read-out: pIC50 (converted)): 10 µM | pIC50 [16]: 6.00 | inhibition [17]: inactive | inhibition [18]: inactive | Papp [19]: 0.3 ×10⁻⁶ cm/s | half-life [20]: 1.7 h | inhibition [21]: inactive | inhibition [22]: inactive | inhibition [23]: inactive | fraction unbound [24]: 0.135 | inhibition [25]: inactive | inhibition (INH) [26]: Not Active | inhibition [27]: inactive | inhibition [28]: inactive | hepatocyte CLint [29]: 7 µL/min/1e6 cells | inhibition (INH) [30]: Not Active | inhibition [31]: inactive | inhibition [32]: Active | inhibition [33]: inactive | inhibition [34]: inactive | pIC50 ([35]; read-out: IC50): 4.85 | IC50 ([35]; read-out: pIC50 (converted)): 10 µM | inhibition [36]: inactive | inhibition [37]: inactive | inhibition [38]: inactive | inhibition [39]: inactive
